Test results published in PubChem BioAssay AID330 (DTP/NCI, 2004).
Several values for one entry are separate records, joined by “and”; a condition that tells them apart may be missing. Equal values may be shown once. Toxic doses and inconclusive results are not listed. How the source made its calls: active means survival T/C of 150% or more; inactive means T/C below 125% in these data. Peptide text beside a SMILES is read from it. * marks the point of attachment. Cbz = O=C(OCc1ccccc1)*

Test system: P388 leukemia ip, CD2F1 mice, survival T/C
Assay: NCI In Vivo Anticancer Drug Screen. Data for tumor model P388 Leukemia (intraperitoneal) in CD2F1 (CDF1) mice
Details: endpoint: median survival time, higher = longer survival
Outline: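 Mice carrying the transplanted tumor received test compound or vehicle. Survival was recorded in each group, and the value is the treated-group measurement divided by that of the vehicle-treated control group.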

[1] = dose: 50.0 mg/kg/injection, schedule: Q01DX009 (ip), vehicle: Klucel (hydroxypropylcellulose) (HPC)
[2] = dose: 100.0 mg/kg/injection, schedule: Q01DX009 (ip), vehicle: Klucel (hydroxypropylcellulose) (HPC)
[3] = dose: 200.0 mg/kg/injection, schedule: Q01DX009 (ip), vehicle: Klucel (hydroxypropylcellulose) (HPC)
[4] = dose: 60.0 mg/kg/injection, schedule: Q01DX005 (ip), vehicle: saline with Tween-80
[5] = dose: 120.0 mg/kg/injection, schedule: Q01DX005 (ip), vehicle: saline with Tween-80
[6] = dose: 240.0 mg/kg/injection, schedule: Q01DX005 (ip), vehicle: saline with Tween-80
[7] = dose: 12.5 mg/kg/injection, schedule: Q01DX009 (ip), vehicle: saline
[8] = dose: 25.0 mg/kg/injection, schedule: Q01DX009 (ip), vehicle: other
[9] = dose: 50.0 mg/kg/injection, schedule: Q01DX009 (ip), vehicle: other
[10] = dose: 100.0 mg/kg/injection, schedule: Q01DX009 (ip), vehicle: other
[11] = dose: 200.0 mg/kg/injection, schedule: Q01DX009 (ip), vehicle: other
[12] = dose: 400.0 mg/kg/injection, schedule: Q01DX009 (ip), vehicle: other
[13] = dose: 50.0 mg/kg/injection, schedule: Q01DX005 (ip), vehicle: Klucel (hydroxypropylcellulose) (HPC)
[14] = dose: 60.0 mg/kg/injection, schedule: Q01DX005 (ip), vehicle: Klucel (hydroxypropylcellulose) (HPC)
[15] = dose: 120.0 mg/kg/injection, schedule: Q01DX005 (ip), vehicle: Klucel (hydroxypropylcellulose) (HPC)
[16] = dose: 240.0 mg/kg/injection, schedule: Q01DX005 (ip), vehicle: Klucel (hydroxypropylcellulose) (HPC)
[17] = dose: 100.0 mg/kg/injection, schedule: Q01DX005 (ip), vehicle: Klucel (hydroxypropylcellulose) (HPC)
[18] = dose: 200.0 mg/kg/injection, schedule: Q01DX005 (ip), vehicle: Klucel (hydroxypropylcellulose) (HPC)
[19] = dose: 25.0 mg/kg/injection, schedule: Q01DX009 (ip), vehicle: Klucel (hydroxypropylcellulose) (HPC)

Measured: T/C

O=C(NN1CCOCC1)C(F)(F)F
inactive: dose: 100.0 mg/kg/injection, schedule: Q01DX001 (ip), vehicle: saline 100 % of control | dose: 200.0 mg/kg/injection, schedule: Q01DX001 (ip), vehicle: saline 99 % of control | dose: 400.0 mg/kg/injection, schedule: Q01DX001 (ip), vehicle: saline 99 % of control

CCN(CC)Cc1cc(N=Nc2cccc3ccccc23)c2ccccc2c1O
inactive: [1] 102 % of control | [2] 108 % of control | [3] 100 % of control

COc1cc2c(c(OC)c1)C(O)=C1C(=O)C3C(O)=C(C(=O)NC(C)(C)C)C(=O)C(NC(=S)c4ccccc4)C3CC1C2 (stereo not drawn)
inactive: [4] 92 % of control | [5] 94 % of control | [6] 101 % of control

CN(C)c1ccc(/C=N/NC(=O)c2ccccc2NC(=O)c2ccccc2Cl)cc1
inactive: dose: 7.5 mg/kg/injection, schedule: Q01DX005 (ip), vehicle: Klucel (hydroxypropylcellulose) (HPC) 86 % of control | dose: 15.0 mg/kg/injection, schedule: Q01DX005 (ip), vehicle: Klucel (hydroxypropylcellulose) (HPC) 86 % of control

O=C(O)C1CC(=O)N(Cc2ccccc2)C1 (stereo not drawn)
inactive: dose: 100.0 mg/kg/injection, schedule: Q04DX003 (ip), vehicle: saline with Tween-80 95 % of control | dose: 200.0 mg/kg/injection, schedule: Q04DX003 (ip), vehicle: saline with Tween-80 100 % of control | dose: 400.0 mg/kg/injection, schedule: Q04DX003 (ip), vehicle: saline with Tween-80 100 % of control

NNC(=O)CCC(=O)NN
inactive: dose: 100.0 mg/kg/injection, schedule: Q04DX002 (ip), vehicle: saline 101 % of control | dose: 200.0 mg/kg/injection, schedule: Q04DX002 (ip), vehicle: saline 96 % of control

O=C(c1ccc(Cl)cc1)c1cc2c(ccc3ccccc32)oc1=O
inactive: dose: 6.25 mg/kg/injection, schedule: Q01DX009 (ip), vehicle: saline 91 % of control | [7] 95 % of control | dose: 25.0 mg/kg/injection, schedule: Q01DX009 (ip), vehicle: saline 104 % of control

O=NC=C1N(O)C=CN1O
inactive: [8] 102 % of control | [9] 101 % of control | [10] 97 % of control | [11] 102 % of control | [12] 99 % of control

c1cc(-c2nc3ccc(-c4nc5ccc(C6=NCCN6)cc5[nH]4)cc3[nH]2)ccc1C1=NCCN1
inactive: dose: 6.25 mg/kg/injection, schedule: Q01DX005 (ip), vehicle: Klucel (hydroxypropylcellulose) (HPC) 100 % of control | dose: 12.5 mg/kg/injection, schedule: Q01DX005 (ip), vehicle: Klucel (hydroxypropylcellulose) (HPC) 98 % of control | [13] 88 % of control

COC1=C(c2c[nH]c3ccc(CC=C(C)C)cc23)C(=O)C(OC)=C(c2c[nH]c3ccc(CC=C(C)C)cc23)C1=O
inactive: dose: 50.0 mg/kg/injection, schedule: Q01DX005 (ip), vehicle: saline with Tween-80 89 % of control | dose: 100.0 mg/kg/injection, schedule: Q01DX005 (ip), vehicle: saline with Tween-80 89 % of control | dose: 200.0 mg/kg/injection, schedule: Q01DX005 (ip), vehicle: saline with Tween-80 94 % of control

COC(=O)C(=O)c1c(C(=O)OC)nc2nnc(N)n2c1-c1ccc(Cl)c(Cl)c1
inactive: [4] 96 % of control | [5] 101 % of control | [6] 104 % of control

CN1C(=O)[C@@H]2N(N(C)C1=O)[C@@]1(Br)C(=O)N(C)C(=O)[C@@]21Br
inactive: [14] 100 % of control | [15] 105 % of control | [16] 101 % of control

NC1=C(O)C(=O)C(c2ccc(C3OC(N)=C(O)C3=O)cc2)O1 (stereo not drawn)
inactive: [14] 101 % of control | [15] 104 % of control | [16] 96 % of control

COc1cccc(NCCCSC)c1
inactive: dose: 50.0 mg/kg/injection, schedule: Q01DX005 (ip), vehicle: saline 102 % of control | dose: 100.0 mg/kg/injection, schedule: Q01DX005 (ip), vehicle: saline 116 % of control

O=C(CCl)N1CCN(c2ccccn2)CC1
inactive: [4] 109 % of control | [5] 110 % of control | [6] 116 % of control

CC(=O)O[C@H]1CC[C@@]2(C)[C@@H](CC[C@@H]3[C@@H]2CC[C@]2(C)C(=NCCO)CC[C@@H]32)C1
inactive: [13] 108 % of control | [17] 105 % of control | [18] 99 % of control

O=C(Oc1ccc(NC(=O)c2cc3c(cc2Br)OCO3)cc1)c1ccccc1
inactive: [8] 104 % of control | [9] 103 % of control | [10] 89 % of control | [11] 97 % of control | [12] 95 % of control

Cc1noc(C)c1-c1onc2ccc(Cl)cc12
inactive: [2] 96 % of control | [3] 96 % of control

CC(=O)CS(=O)(=O)c1ccc(NC(C)=O)cc1
inactive: dose: 50.0 mg/kg/injection, schedule: Q01DX009 (ip), vehicle: suspension in saline 105 % of control | dose: 100.0 mg/kg/injection, schedule: Q01DX009 (ip), vehicle: suspension in saline 94 % of control | dose: 200.0 mg/kg/injection, schedule: Q01DX009 (ip), vehicle: suspension in saline 101 % of control

C[N+](C)=C1C=CC(=C2C=CSC=C2)C=C1
inactive: [7] 108 % of control and 112 % of control

O=C(O)CC(CC(=O)c1ccccc1)c1ccccc1 (stereo not drawn)
inactive: dose: 12.5 mg/kg/injection, schedule: Q01DX009 (ip), vehicle: Klucel (hydroxypropylcellulose) (HPC) 104 % of control | [19] 101 % of control | [1] 103 % of control and 108 % of control | [2] 101 % of control and 102 % of control and 107 % of control | [3] 104 % of control and 94 % of control | dose: 400.0 mg/kg/injection, schedule: Q01DX009 (ip), vehicle: Klucel (hydroxypropylcellulose) (HPC) 104 % of control and 93 % of control

O=C(Nc1cccc(C(F)(F)F)c1)Nc1nccs1
inactive: [19] 100 % of control | [1] 98 % of control | [2] 97 % of control

C(/CSC/C=N/Nc1ccccc1)=N\Nc1ccccc1
inactive: dose: 50.0 mg/kg/injection, schedule: Q01DX009 (ip), vehicle: saline 103 % of control | dose: 100.0 mg/kg/injection, schedule: Q01DX009 (ip), vehicle: saline 103 % of control

CN1c2ccc(Cl)cc2C(=O)NC1c1ccc([N+](=O)[O-])s1 (stereo not drawn)
inactive: dose: 50.0 mg/kg/injection, schedule: Q01DX009 (ip), vehicle: saline with Tween-80 106 % of control | dose: 100.0 mg/kg/injection, schedule: Q01DX009 (ip), vehicle: saline with Tween-80 108 % of control | dose: 200.0 mg/kg/injection, schedule: Q01DX009 (ip), vehicle: saline with Tween-80 113 % of control | dose: 400.0 mg/kg/injection, schedule: Q01DX009 (ip), vehicle: saline with Tween-80 115 % of control

O=Nc1ccc(Cl)cc1
inactive: dose: 12.5 mg/kg/injection, schedule: Q04DX003 (ip), vehicle: Klucel (hydroxypropylcellulose) (HPC) 103 % of control | dose: 25.0 mg/kg/injection, schedule: Q04DX003 (ip), vehicle: Klucel (hydroxypropylcellulose) (HPC) 101 % of control | dose: 50.0 mg/kg/injection, schedule: Q04DX003 (ip), vehicle: Klucel (hydroxypropylcellulose) (HPC) 93 % of control

COc1cc(OC)c(Cc2cc3c(cc2OC)OCO3)c(OC)c1
inactive: [4] 91 % of control | [5] 87 % of control | [6] 87 % of control

Cc1c(Br)sc2ccc3ccccc3c12
inactive: dose: 100.0 mg/kg/injection, schedule: Q01DX001 (ip), vehicle: saline with Tween-80 103 % of control | dose: 200.0 mg/kg/injection, schedule: Q01DX001 (ip), vehicle: saline with Tween-80 106 % of control | dose: 400.0 mg/kg/injection, schedule: Q01DX001 (ip), vehicle: saline with Tween-80 103 % of control

CCOc1c(N=Nc2ccccc2)c(C)nn1C(=S)SC
inactive: dose: 60.0 mg/kg/injection, schedule: Q01DX005 (ip), vehicle: Klucel + Tween-80 110 % of control | dose: 120.0 mg/kg/injection, schedule: Q01DX005 (ip), vehicle: Klucel + Tween-80 108 % of control | dose: 240.0 mg/kg/injection, schedule: Q01DX005 (ip), vehicle: Klucel + Tween-80 100 % of control

CCOC(=O)CCC(NC(=O)C(CCC(=O)OCC)NC(=O)OCc1ccccc1)C(=O)O (stereo not drawn) (tested in a mixture with another compound) (Cbz-Glu(OEt)-Glu(OEt)-OH; configuration not given here)
inactive: [13] 100 % of control | [17] 100 % of control | [18] 100 % of control
